Test results from US20100093538A1, “Pseudomonas Bacterium” (priority 2008, published 2010).

Legend:
[1] = system: germinating lettuce seeds; test: Lettuce seed bioassay of EtOAC extracts of cell-free culture filtrates; conditions: IAA at 1 μg/ml
R. solani = type: cell-based; conditions: bioautography, Si gel scraped into agar plates inoculated with R. solani

SMILES	Effect on germination of lettuce seeds [1]	Fungal inhibition (R. solani)
O=C(O)Cc1c[nH]c2ccccc12 [IAA, indole-3-acetic acid]	inhibits the germination of lettuce seeds	–
O=[N+]([O-])c1c(Cl)cccc1-c1c[nH]cc1Cl [PRN, 3-chloro-4-[2′ nitro-3′-chlorophenyl]pyrrole]	–	Rhizoctonia
CC(=O)c1c(O)cc(O)c(C(C)=O)c1O [DAPG, 2,4-diacetylphloroglucinol]	–	Rhizoctonia
